Data: patent US12252524B2, “GIP/GLP1 co-agonist compounds” (Eli Lilly and Company, priority 2018, dated 2025)
Where two headings read alike, the source gives them in different places. Numbered stars: 1 amine (or outer) side, 2 acyl side, 3 side chain; on linkers, the order of the positions; unused ones are H or OH. Square brackets hold non-standard residues; d marks the D form. Side chains are listed from the residue outwards. Peptide text beside a SMILES is read from it. * marks the point of attachment. C20 diacid = O=C(O)CCCCCCCCCCCCCCCCCCC(=O)*; C18 diacid = O=C(O)CCCCCCCCCCCCCCCCC(=O)*; αMePhe(2-F) = C[C@](N)(Cc1ccccc1F)C(=O)O; γGlu = O=C(O)[C@H](CCC(=O)[*:2])N[*:1]; αMeL = CC(C)C[C@](C)(N)C(=O)O; AEEA = NCCOCCOCC(=O)O; Aib = CC(C)(N)C(=O)O

Tests used:
[1] = Proteolytic stability assay in 1% rat small intestinal fluid (rSIF); settings: for percentage of peptide not cleaved using rSIF: 0 min, 1% rSIF, 37° C.; for remaining at 0.05 h, 0.4 mg/mL / remaining at 0.25 h, 0.4 mg/mL / remaining at 1 h, 0.4 mg/mL: rat, real gastrointestinal fluid or homogenate, pH 8
Method: The stability of peptides are compared in 1% rat small intestinal fluid (rSIF). The amount of intact peptide is measured for a sample peptide at 0, 3, 15, and 30 minutes to assess proteolytic stability. The amount of intact peptide for a sample peptide is measured in 90% pig small intestinal fluid (pSIF) at 0, 30, 45, and 60 minutes to assess the proteolytic stability.
Peptides are prepared at 0.4 mg/mL in 50 mM Tris pH8.0. […] The mixture is incubated at 37° C. at 150 rpm. Thirty μL of each sample are removed and placed into a new tube before the rSIF is added and at […]. At each time point, the reaction was quenched by 1% TFA in 50% ACN at 1:1. The samples are diluted 100 times using dilution buffer (1:1 of 1% TFA in 50% ACN: 50 mM Tris pH8) and ready for analysis using mass spectrometry (MS).
The data analysis is performed using MassLynx.

[2] = single subcutaneous 200 nMol/kg, male CD-1 mice
Method: The pharmacokinetics of select Examples are evaluated following a single subcutaneous administration of 200 nMol/kg to male CD-1 mice. […] Plasma (K3 EDTA) concentrations are determined using a qualified LC/MS method that measures the intact mass of the Examples. […] Instruments are combined for LC/MS detection.

[3] = single subcutaneous 50 nMol/kg, male cynomolgus monkeys
Method: (§1) Pharmacokinetics in male Cynomolgus Monkeys The pharmacokinetics of select Examples are evaluated following a single subcutaneous administration of 50 nMol/kg to male cynomolgus monkeys. […] Peptide plasma (K3 EDTA) concentrations are determined using a qualified LC/MS method that measured the intact mass of the compound. […] Instruments are combined for LC/MS detection.

[4] = single subcutaneous 50 nMol/kg, male Sprague Dawley rats; mean (SD)
Method: (§2) The pharmacokinetics of select Examples are evaluated following a single subcutaneous (SC) administration of 50 nMol/kg (dissolved in PBS, pH 7.4) or single 1 μmol/kg (mixed with 250 mM sodium decanoate (“C10”) and 12 mg/mL soybean trypsin inhibitor (SBTI)) intrajejunal (IJ) administration to male Sprague Dawley rats. […] Pharmacokinetic parameters are calculated using individual plasma concentrations. A qualified LC/MS method that measures the intact mass of the Example is used to determine plasma (K3 EDTA) concentrations. Each Example is tested with an analog peptide as an internal standard. Immunoaffinity based precipitation with anti-GIP/GLP1 antibodies is used to extract each test peptide and analog.

[5] = single intrajejunal 1 μmol/kg with 250 mM C10 and 12 mg/mL SBTI, male Sprague Dawley rats; for Cmax/D: mean (SD)
Method: as §2

in vivo [6] = settings: male, cynomolgus monkey, plasma, sc, 50 nmol/kg
Method: as §1

in vivo [7] = settings: male, Sprague Dawley, rat, plasma, sc, 50 nmol/kg
Method: as §2

in vivo [8] = settings: male, Sprague Dawley, rat, plasma, other: intrajejunal, 1 umol/kg
Method: as §2

human GLP-1R [9] = target: T1, human GLP-1R (Homo sapiens, UniProt P43220); experiment: [125I]-GLP-1 binding (SPA), human GLP-1 receptor; design: expressed in transfected cells; crude membranes
T1 sequence (P43220 24-463): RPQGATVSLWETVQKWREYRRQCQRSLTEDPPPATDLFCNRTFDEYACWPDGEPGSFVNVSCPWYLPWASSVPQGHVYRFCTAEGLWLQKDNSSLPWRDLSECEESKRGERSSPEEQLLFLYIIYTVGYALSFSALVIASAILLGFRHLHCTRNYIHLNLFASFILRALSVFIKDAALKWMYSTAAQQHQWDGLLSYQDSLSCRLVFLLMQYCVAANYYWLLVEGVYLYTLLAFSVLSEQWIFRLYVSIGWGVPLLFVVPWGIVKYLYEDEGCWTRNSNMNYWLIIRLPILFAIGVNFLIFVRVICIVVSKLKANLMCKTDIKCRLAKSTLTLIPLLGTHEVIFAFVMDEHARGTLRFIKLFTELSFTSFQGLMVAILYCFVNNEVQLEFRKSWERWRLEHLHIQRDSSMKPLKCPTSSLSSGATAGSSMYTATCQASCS
Outline: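 Frozen cell pellets are lysed on ice in hypotonic Tris buffer, pH 7.5, homogenized, and centrifuged to a membrane pellet resuspended at about 1 to 3 mg/mL. Binding is then measured in HEPES-based buffer at pH 7.4, and curves are fitted to give IC50 and Ki.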

[10] = tested on: CD8+ T cell depleted peripheral blood mononuclear cells; experiment: CD4+ T cell assay for potential clinical immunogenicity; settings: for frequency of positive CD+ T cell response (CDI>2.5): CD4+ T cell assay
Method: (§3) The purpose of this study is to determine the relative potential for clinical immunogenicity of a compound.
(§4) CD8+ T cell depleted peripheral blood mononuclear cells are prepared and labeled with Carboxyfluorescein Diacetate Succinimidyl Ester (CFSE, Invitrogen) from a cohort of 10 healthy donors. […] Cultures are incubated for 7 days at 37° C. with 5% CO2. On day 7, samples are analyzed by flow cytometry using High Throughput Sampler (HTS). Data is analyzed using FlowJo® Software (FlowJo, LLC, TreeStar).

human GLP-1R [11] = target: T1, human GLP-1R; experiment: GLP-1R CHO cell β-arrestin recruitment assay; type: cell-based; design: host or cells: CHO-K1 PathHunter cells, assay-ready frozen; settings: for hGLP1R B-Arrestin2 % Top: normalized to GLP-1 maximum control
Outline: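 Peptide-induced β-arrestin-2 recruitment measured by enzyme-fragment complementation luminescence after 90 min at 37 °C plus 60 min detection at RT.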

[12] = tested on: CD8+ T cell depleted peripheral blood mononuclear cells
Method: as §3, §4

[13] = Examples 10 uM, KLH 0.33 μM, 7 days

Row | SMILES | percentage of peptide not cleaved using rSIF [1] [%] | remaining at 0.05 h, 0.4 mg/mL [1] [%] | remaining at 0.25 h, 0.4 mg/mL [1] [%] | remaining at 1 h, 0.4 mg/mL [1] [%] | AUCINF_D_obs [2] [hr*kg*nmol/L/nmol] | Cmax/D [2] [kg*nmol/L/nmol] | AUCINF_D_obs [3] [hr*kg*nmol/L/nmol] | Cmax/D [3] [kg*nmol/L/nmol] | AUCINF_D_obs [4] | Cmax/D [4] | AUCINF_D_obs [5] [hr*kg*nmol/L/nmol] | Cmax/D [5] | CL/F (in vivo [6]) [mL/h/kg] | Tmax (in vivo [6]) [h] | half-life (in vivo [6]) [h] | CL/F (in vivo [7]) [mL/h/kg] | Tmax (in vivo [7]) [h] | half-life (in vivo [7]) [h] | Tmax (in vivo [8]) [h] | Ki (human GLP-1R [9]) [nM] | further results
1 | CC[C@H](C)[C@H](NC(=O)[C@H](CC(C)C)NC(=O)[C@H](Cc1ccc(O)cc1)NC(=O)[C@@H](CCC(=O)O)NC(=O)[C@@H](NC(=O)[C@H](Cc1ccccc1)NC(=O)[C@H](CCC(=O)O)NC(=O)C(C)(C)NC(=O)[C@H](CCC(N)=O)NC(=O)[C@H](C)NC(=O)[C@H](CCCCNC(=O)COCCOCCNC(=O)COCCOCCNC(=O)CC[C@H](NC(=O)CCCCCCCCCCCCCCCCCCC(=O)O)C(=O)O)NC(=O)[C@H](CCC(=O)O)NC(=O)[C@H](CC(=O)O)NC(=O)[C@H](CC(C)C)NC(=O)[C@](C)(CC(C)C)NC(=O)[C@@H](NC(=O)[C@H](CO)NC(=O)[C@H](Cc1ccc(O)cc1)NC(=O)[C@H](CC(=O)O)NC(=O)[C@H](CO)NC(=O)[C@@H](NC(=O)[C@](C)(Cc1ccccc1F)NC(=O)[C@@H](NC(=O)CNC(=O)[C@H](CCC(=O)O)NC(=O)C(C)(C)NC(=O)[C@@H](N)Cc1ccc(O)cc1)[C@@H](C)O)[C@@H](C)O)[C@@H](C)CC)[C@@H](C)CC)C(=O)N[C@@H](CCC(=O)O)C(=O)NCC(=O)NCC(=O)N1CCC[C@H]1C(=O)N[C@@H](CO)C(=O)N[C@@H](CO)C(=O)NCC(=O)N[C@@H](C)C(=O)N1CCC[C@H]1C(=O)N1CCC[C@H]1C(=O)N1CCC[C@H]1C(=O)N[C@@H](CO)C(N)=O [Example 1] (H-Y[Aib]EGT[αMePhe(2-F)]TSDYSI[αMeL]LDEK([AEEA-AEEA-γGlu-C20 diacid])AQ[Aib]EFI[dE]YLIEGGPSSGAPPPS-NH2) | 100 | 82.4 | 41.4 | 1.6 | 135.61 | 4.84 | 1458 | 6.5 | 294.2 (30.0) hr*kg*nmol/L/nmol | 3.34 (0.22) kg*nmol/L/nmol | 1.31 | 0.08 (0.05) kg*nmol/L/nmol | 0.69 | 18 | 125 | 3.42 | 21.3 | 44.7 | 1.33 | 6.67 | frequency of positive CD+ T cell response (CDI>2.5) [10]: low; % Donor Response (CD4+ T cell response) [10, 13]: 9%; Median Response Strength in positive donors (CDI) [10, 13]: 0.7 CDI; EC50 (human GLP-1R [11]): 0.005 µM; hGLP1R B-Arrestin2 % Top (human GLP-1R [11]): 105%
2 | CC[C@H](C)[C@H](NC(=O)[C@H](CC(C)C)NC(=O)[C@H](Cc1ccc(O)cc1)NC(=O)[C@@H](CCC(=O)O)NC(=O)[C@@H](NC(=O)[C@H](Cc1ccccc1)NC(=O)[C@H](CCC(=O)O)NC(=O)C(C)(C)NC(=O)[C@H](CCC(N)=O)NC(=O)[C@H](C)NC(=O)[C@H](CCCCNC(=O)COCCOCCNC(=O)COCCOCCNC(=O)CC[C@H](NC(=O)CCCCCCCCCCCCCCCCCCC(=O)O)C(=O)O)NC(=O)[C@H](CCCN)NC(=O)[C@H](CC(=O)O)NC(=O)[C@H](CC(C)C)NC(=O)[C@](C)(CC(C)C)NC(=O)[C@@H](NC(=O)[C@H](CO)NC(=O)[C@H](Cc1ccc(O)cc1)NC(=O)[C@H](CC(=O)O)NC(=O)[C@H](CO)NC(=O)[C@@H](NC(=O)[C@](C)(Cc1ccccc1F)NC(=O)[C@@H](NC(=O)CNC(=O)[C@H](CCC(=O)O)NC(=O)C(C)(C)NC(=O)[C@@H](N)Cc1ccc(O)cc1)[C@@H](C)O)[C@@H](C)O)[C@@H](C)CC)[C@@H](C)CC)C(=O)N[C@@H](CCC(=O)O)C(=O)NCC(=O)NCC(=O)N1CCC[C@H]1C(=O)N[C@@H](CO)C(=O)N[C@@H](CO)C(=O)NCC(=O)N[C@@H](C)C(=O)N1CCC[C@H]1C(=O)N1CCC[C@H]1C(=O)N1CCC[C@H]1C(=O)N[C@@H](CO)C(N)=O [Example 3] | 100 | 68.8 | 25.8 | 0.3 | 158.49 | 4.42 | 3420 | 11.38 | 371.8 (21.8) hr*kg*nmol/L/nmol | 4.71 (0.50) kg*nmol/L/nmol | 8.45 | 0.47 (0.16) kg*nmol/L/nmol | 0.29 | 30 | 181 | 2.7 | 21.3 | 32.1 | 0.33 | 2.23 | frequency of positive CD+ T cell response (CDI>2.5) [10]: low; % Donor Response (CD4+ T cell response) [10, 13]: 0%
3 | CC[C@H](C)[C@H](NC(=O)[C@H](CC(C)C)NC(=O)[C@H](Cc1ccc(O)cc1)NC(=O)[C@H](CCC(=O)O)NC(=O)[C@@H](NC(=O)[C@H](Cc1ccccc1)NC(=O)[C@H](C)NC(=O)C(C)(C)NC(=O)[C@H](CCC(N)=O)NC(=O)[C@H](C)NC(=O)[C@H](CCCCNC(=O)COCCOCCNC(=O)COCCOCCNC(=O)CC[C@H](NC(=O)CCCCCCCCCCCCCCCCC(=O)O)C(=O)O)NC(=O)[C@H](CCCCN)NC(=O)[C@H](CC(=O)O)NC(=O)[C@H](CC(C)C)NC(=O)[C@H](CC(C)C)NC(=O)[C@@H](NC(=O)[C@H](CO)NC(=O)[C@H](Cc1ccc(O)cc1)NC(=O)[C@H](CC(=O)O)NC(=O)[C@H](CO)NC(=O)[C@@H](NC(=O)[C@H](Cc1ccccc1)NC(=O)[C@@H](NC(=O)CNC(=O)[C@H](CCC(=O)O)NC(=O)C(C)(C)NC(=O)[C@@H](N)Cc1ccc(O)cc1)[C@@H](C)O)[C@@H](C)O)[C@@H](C)CC)[C@@H](C)CC)C(=O)N[C@@H](C)C(=O)NCC(=O)NCC(=O)N1CCC[C@H]1C(=O)N[C@@H](CO)C(=O)N[C@@H](CO)C(=O)NCC(=O)N[C@@H](C)C(=O)N1CCC[C@H]1C(=O)N1CCC[C@H]1C(=O)N1CCC[C@H]1C(=O)N[C@@H](CO)C(N)=O [Example 316] (H-Y[Aib]EGTFTSDYSILLDKK([AEEA-AEEA-γGlu-C18 diacid])AQ[Aib]AFIEYLIAGGPSSGAPPPS-NH2) | – | – | – | – | – | – | – | – | – | – | – | – | – | – | – | – | – | – | – | – | frequency of positive CD+ T cell response (CDI>2.5) [12]: low; Ki (human GLP-1R [9]; read-out: hGLP1R Ki, (nM) (SEM, n)): 0.957 nM; EC50 (human GLP-1R [11]; CHO-K1 cells, PathHunter β-arrestin-2 recruitment, 0.1% casein, read-out: hGLP1R B-Arrestin2 Rel EC50 uM (SEM, n)): 0.00608 µM; hGLP1R B-Arrestin2 % Top (human GLP-1R [11]): 26.1%
